These results are taken from patent US12161628B2, “Combination therapy” (Medivation Prostate Therapeutics LLC, priority 2015, dated 2024).

For series [1] the following is noted: human, in vivo.
Protocol: (§1) For all subjects in the rifampin treatment arm, the last quantifiable enzalutamide concentration was measured prior to the end of the rifampin dosing period (up to 13 days after enzalutamide dosing).
(§2) It should be noted that AUCs could only be accurately determined for 4 subjects in the enzalutamide treatment arm (treatment arm 1) and 6 subjects in the enzalutamide+rifampin treatment arm (treatment arm 2).
A short description of series [2]: Rifampin plasma pharmacokinetics on day 8 after multiple doses of 600 mg once daily. The series is classed as in vivo, human (healthy volunteers). As to conditions: multiple doses of 600 mg rifampin once daily; for AUC / concentration at 2 h / Cmax / Tmax: human, plasma, oral, 600 mg. As to the method:
Data handling. The actual sampling time of enzalutamide and its metabolites for 6 subjects (7 samples in total), and the actual sampling time of the 2-hour rifampin sample of subject 10002 on Day 21 deviated more than 10% of the scheduled time point.
In FIG. 7, individual and mean rifampin C2H plasma concentrations that were obtained during the entire dosing period of 21 days are presented.
Median tmax was reached 2 hours post-dose.

For another series, the system named is CYP3A4. As to conditions: in vivo. As to the method:
Data handling. […] In addition, for many subjects, urine samples taken post enzalutamide dose were not taken within 180 minutes of the ‘virtual’ enzalutamide dosing time (i.e., day 1 enzalutamide dosing time [enzalutamide treatment arm{treatment arm 1}] and day 8 enzalutamide dosing time [enzalutamide+rifampin treatment arm {treatment arm 2}]) and/or pre-dose of rifampin. The 6β-hydroxycortisol and cortisol concentrations of these urine samples and obtained 6β-hydroxycortisol/cortisol ratios were excluded from summary statistics.

A short description of another series: clinical. As to conditions: human, in vivo; for Vd/F: Vz/F.
A short description of series [3]: Drug-drug interaction trial: plasma pharmacokinetics of enzalutamide, M1, M2 and sum of enzalutamide plus M2 after single 160 mg enzalutamide alone or with multiple doses of rifampin.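 As to all read-outs here: human plasma pharmacokinetics in a two-arm drug interaction trial comparing enzalutamide given alone against enzalutamide given with rifampin.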 As to conditions: for MPR (MWC): metabolite versus parent ratio (molecular weight corrected), Mean: based on AUCinf.
Protocol: as §1, §2
[4] abbreviates: plasma, Enzalutamide (Reference), single 160 mg dose alone.
Setting [5] is: plasma, single dose 160 mg enzalutamide alone.
Where [6] appears, read: plasma, single dose 160 mg enzalutamide in the presence of multiple doses of 600 mg rifampin once daily (Test).

Molecules are shown by their SMILES. “And” between values parts separate entries of the source, which are not always exact repeats. Equal values may be shown once. Read-outs that look alike come from different tables or passages of the source.

Protocol for clinical: as §1, §2

In the case of `CC1(C)C(=O)N(c2ccc(C#N)c(C(F)(F)F)c2)C(=S)N1c1ccc(C(=O)O)c(F)c1` [M1], in series [1], the “AUC0-336hr lower in the presence of rifampin” value was 15% and the “AUCinf lower in the presence of rifampin” value is 32%. In addition, in series [1] (160 mg), the “AUC0-336h, Mean” value amounted to 32.49 µg·h/mL; the “AUC0-336h, Median” value stood at 31.38 µg·h/mL; the “AUC0-t, Mean” value came out at 47.87 µg·h/mL; the “AUC0-t, Median” value came to 46.66 µg·h/mL. Moreover, in series [1] (160 mg), the “AUCinf, Geometric LS Mean” value was 59.62 µg·h/mL; the “AUCinf, Mean” value came out at 62.14 µg·h/mL; the “AUCinf, Median” value is 57.39 µg·h/mL; the “Cmax, Geometric LS Mean” value was determined as 134.6 ng/mL. Moreover, in series [1] (160 mg), the “Cmax, Mean” value was 141.4 ng/mL; the “Cmax, Median” value was 135 ng/mL; the “t1/2, Mean” value amounted to 223.9 h; the “t1/2, Median” value turned out to be 236.6 h.
As usually defined, the Cmax is the peak of the concentration-time curve. What is called Tmax is the time at which the peak concentration occurs. In the case of `CO[C@H]1/C=C/O[C@@]2(C)Oc3c(C)c(O)c4c(O)c(c(/C=N/N5CCN(C)CC5)c(O)c4c3C2=O)NC(=O)/C(C)=C\C=C\[C@H](C)[C@H](O)[C@@H](C)[C@@H](O)[C@@H](C)[C@H](OC(C)=O)[C@@H]1C` [Rifampin, rifampin], the AUC in series [2] (read-out: AUCtau, Mean) is 35.6 µg·h/mL; in series [2] (read-out: AUCtau, Median), 35.2 µg·h/mL. Further, the concentration at 2 h in series [2] (read-out: C2h, Mean) worked out at 6760 ng/mL; in series [2] (read-out: C2h, Median) it was 6620 ng/mL. The Cmax was 7160 ng/mL in series [2] (read-out: Cmax, Mean) and 7040 ng/mL in series [2] (read-out: Cmax, Median). In addition, the Tmax in series [2] (read-out: tmax, Mean) was found to be 1.72 h; in series [2] (read-out: tmax, Median), 2 h. Moreover, in series [2], the “Cmin, Mean” value turned out to be 0 ng/mL.
What is called AUC(0-inf) is total exposure, with the tail of the curve extrapolated. What is called AUC(0-t) is the area under the concentration-time curve up to a stated or last time point. Low readings indicate low exposure, high ones high exposure. By Vd/F is commonly meant the volume of distribution divided by bioavailability. What is called half-life is the time needed for the level to fall by half in the phase considered. Consider `CNC(=O)c1ccc(N2C(=S)N(c3ccc(C#N)c(C(F)(F)F)c3)C(=O)C2(C)C)cc1F` [Enzalutamide, 4-{3-[4-cyano-3-(trifluoromethyl)phenyl]-5,5-dimethyl-4-oxo-2-sulfanylideneimidazolidin-1-yl}-2-fluoro-N-methylbenzamide], for which the “Inductive effect on CYP3A4 (pharmacodynamic assessment)” value in the series with CYP3A4 was “minimal inductive effect”. Moreover, the “AUC0-336hr lower in the presence of rifampin” value in series [1] amounted to 63%. Besides, the “AUCinf lower in the presence of rifampin” value in series [1] is on record as 66%. Also, in series [1] (160 mg), the “% AUC (percentage extrapolated), range of individual values” is given as 0.658-4.56%. Also, the “CL/F, Mean” value in series [1] (160 mg) is 0.6330 L/h. Moreover, the “CL/F, Median” value in series [1] (160 mg) is 0.6184 L/h. Also, the AUC(0-inf) is 86.9 µg·h/mL in the series “clinical”; 257 µg·h/mL in the series “clinical” (160 mg, AUCinf, Geometric LS Mean); 262 µg·h/mL in the series “clinical” (160 mg, AUCinf, Mean); 259 µg·h/mL in “clinical” (160 mg, AUCinf, Median). Further, the AUC(0-t) in “clinical” came to 86.8 µg·h/mL; in the series “clinical” (160 mg, AUC0-336h, Mean) it was 239 µg·h/mL; in the series “clinical” (160 mg, AUC0-336h, Median), 233 µg·h/mL; in “clinical” (160 mg, AUC0-t, Mean) it was 258 µg·h/mL; in the series “clinical” (160 mg, AUC0-t, Median), 254 µg·h/mL. In addition, the Cmax is 4520 ng/mL in “clinical”; 4860 ng/mL in “clinical” (160 mg, Cmax, Geometric LS Mean); 4930 ng/mL in “clinical” (160 mg, Cmax, Mean); 5140 ng/mL in the series “clinical” (160 mg, Cmax, Median). Besides, the Vd/F in “clinical” (160 mg, Mean) was found to be 79.8 L; in the series “clinical” (160 mg, Median) it was 78.1 L. Further, the half-life was 90.1 h in “clinical” (160 mg, t1/2, Mean) and 85.7 h in the series “clinical” (160 mg, t1/2, Median). Also, the Tmax was found to be 1.08 h in “clinical” (160 mg, Mean) and 0.91 h in “clinical” (160 mg, Median).
Take `CC1(C)C(=O)N(c2ccc(C#N)c(C(F)(F)F)c2)C(=S)N1c1ccc(C(N)=O)c(F)c1` [M2, N-desmethyl enzalutamide]: in series [3] (compared to enzalutamide alone), the “AUC0-336hr higher in the presence of rifampin” value turned out to be 15%, the “AUCinf lower in the presence of rifampin” value was found to be 15% and the “Cmax higher in the presence of rifampin” value worked out at 34%. For the same molecule, in series [3] (setting [4]), the “AUCinf, Geometric LS Mean” value is 349.3 µg·h/mL and the “Cmax, Geometric LS Mean” value came out at 737 ng/mL. For the same molecule, in series [3] (setting [5]), the “AUC0-336h, Mean” value amounted to 197.6 µg·h/mL; the “AUC0-336h, Median” value turned out to be 184.1 µg·h/mL; the “AUC0-t, Mean” value turned out to be 344.3 µg·h/mL; the “AUC0-t, Median” value amounted to 338.3 µg·h/mL. Also, in series [3] (setting [5]), the “AUCinf, Mean” value was 354.0 µg·h/mL; the “AUCinf, Median” value was 351.0 µg·h/mL; the “Cmax, Mean” value came to 754.6 ng/mL; the “Cmax, Median” value was determined as 714.5 ng/mL. Moreover, in series [3] (setting [5]), the “MPR (MWC): metabolite versus parent ratio (molecular weight corrected), Median” value was 1.373; the “t1/2, Mean” value was found to be 190.4 h; the “t1/2, Median” value was 182.1 h; the “tmax, Mean” value is listed as 161.3 h. Besides, the “MPR (MWC): metabolite versus parent ratio (molecular weight corrected), Mean” value in series [3] (setting [5]) is 1.385 and 1.431. Besides, in series [3] (setting [6]), the “AUC0-336h, Mean” value came out at 224.0 µg·h/mL; the “AUC0-336h, Median” value was determined as 221.9 µg·h/mL; the “AUC0-t, Mean” value is 292.1 µg·h/mL; the “AUC0-t, Median” value came to 293.5 µg·h/mL. Also, in series [3] (setting [6]), the “AUCinf, Mean” value was determined as 297.9 µg·h/mL; the “AUCinf, Median” value amounted to 299.4 µg·h/mL; the “Cmax, Mean” value was 994.9 ng/mL; the “Cmax, Median” value is 1010 ng/mL. Besides, in series [3] (setting [6]), the “MPR (MWC): metabolite versus parent ratio (molecular weight corrected), Median” value came out at 3.372; the “t1/2, Mean” value is on record as 154.7 h; the “t1/2, Median” value worked out at 152.5 h; the “tmax, Mean” value was found to be 66.75 h. Moreover, in series [3] (setting [6]), the “tmax, Median” value is 71.86 h; the “MPR (MWC): metabolite versus parent ratio (molecular weight corrected), Mean” value is 3.443 and 3.558.
